Experiments:
wild-type EGFR = details: cited from earlier work
[1] = Metabolic stability of osimertinib in RLMs; format: in vitro ADME, rat; details: rat, rat liver microsomes, pH 7.4
[2] = test system: rat liver microsomes (RLM); assay: Metabolic stability of osimertinib in RLMs; format: in vitro ADME; details: osimertinib incubation with RLMs
[3] = Pharmacokinetics of osimertinib in rats after pretreatment with avitinib; format: in vivo, Sprague-Dawley rats
[4] = test system: osimertinib metabolism in rat liver microsomes; assay: Inhibition by avitinib of osimertinib metabolism in rat liver microsomes; format: in vitro ADME; details: pH 7.4, probe osimertinib 0.01 μM
[5] = avitinib multiple doses group vs control
[6] = avitinib single dose group vs control

half-life at 0.01 μM [1] [min]	Slope (Ln remaining percent vs incubation time) [2]	decrease of CLz/F vs control [3, 5] [%]	increase of AUC(0-t) vs control [3, 5] [fold]	increase of AUC(0-∞) vs control [3, 5] [fold]	increase of Cmax vs control [3, 5] [fold]	increase of MRT(0-t) vs control [3, 5] [fold]	increase of Tmax vs control [3, 5] [fold]	decrease of CLz/F vs control [3, 6] [%]	increase of AUC(0-t) vs control [3, 6] [fold]	increase of AUC(0-∞) vs control [3, 6] [fold]	increase of Cmax vs control [3, 6] [fold]	increase of MRT(0-t) vs control [3, 6] [fold]	increase of Tmax vs control [3, 6] [fold]	IC50 [4] [µM]	SMILES	inhibitory effect on the wild-type EGFR protein (wild-type EGFR)	effect on wild-type EGFR (wild-type EGFR)
33.6	0.02062	52	1.91	1.92	1.66	1.39	1.74	44	2.35	2.38	1.72	1.31	1.48		C=CC(=O)Nc1cc(Nc2nccc(-c3cn(C)c4ccccc34)n2)c(OC)cc1N(C)CCN(C)C [osimertinib]	weak inhibitory effect	
														27.6	C=CC(=O)Nc1cccc(Oc2nc(Nc3ccc(N4CCN(C)CC4)c(F)c3)nc3[nH]ccc23)c1 [avitinib]		no effects

Source: article PMC7529555 (Thoracic Cancer, 2020)
